Reference: US5916876A, “Peptide inhibitors of leukocyte adhesion” (Centocor, Inc., priority 1994, dated 1999)
Residues, ends and D or L forms follow the SMILES beside them.

target: T1, human P-selectin (Homo sapiens, UniProt P16109); assay: Neutrophil adhesion to purified P-selectin immobilized on plastic wells (myeloperoxidase readout); format: cell-based; conditions: inhibition of binding of human neutrophils to human P-selectin; head: 0.3 μM peptide, text b193: 300 μM; read-out: % INHIBITION AT 0.3 μM PEPTIDE CONC.
T1 construct: from tissue; host or cells: outdated human platelet packs from a blood bank
T1 sequence (P16109 42-830): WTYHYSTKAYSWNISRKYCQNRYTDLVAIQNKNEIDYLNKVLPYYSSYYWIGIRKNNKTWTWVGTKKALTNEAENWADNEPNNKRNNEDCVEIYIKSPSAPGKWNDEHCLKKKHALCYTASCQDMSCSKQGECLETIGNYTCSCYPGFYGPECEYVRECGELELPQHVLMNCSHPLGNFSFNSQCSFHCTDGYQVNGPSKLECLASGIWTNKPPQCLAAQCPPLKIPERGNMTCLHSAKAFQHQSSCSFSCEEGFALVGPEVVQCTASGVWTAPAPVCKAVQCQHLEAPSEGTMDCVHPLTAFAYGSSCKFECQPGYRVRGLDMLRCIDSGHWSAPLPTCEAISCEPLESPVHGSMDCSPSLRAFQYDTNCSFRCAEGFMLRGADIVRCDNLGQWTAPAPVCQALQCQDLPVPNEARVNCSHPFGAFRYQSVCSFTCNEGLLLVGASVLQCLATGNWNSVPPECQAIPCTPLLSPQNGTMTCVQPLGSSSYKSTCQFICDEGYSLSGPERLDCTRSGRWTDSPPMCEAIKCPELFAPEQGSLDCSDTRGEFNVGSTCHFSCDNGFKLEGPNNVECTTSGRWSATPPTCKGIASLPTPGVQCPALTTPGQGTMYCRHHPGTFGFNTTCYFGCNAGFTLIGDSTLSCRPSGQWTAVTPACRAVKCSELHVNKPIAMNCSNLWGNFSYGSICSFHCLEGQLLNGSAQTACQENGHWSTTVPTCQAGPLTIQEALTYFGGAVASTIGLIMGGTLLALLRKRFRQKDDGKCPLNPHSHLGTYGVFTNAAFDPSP
From the text: Peptides can be screened for their ability to inhibit adhesion to cells, for example, neutrophil adhesion to purified P-selectin immobilized on plastic wells, using the assay described by Geng, et al., Nature 343, 757-760 (1990).
Human neutrophils are isolated from heparinized whole blood by density gradient centrifugation on Mono-Poly resolving media, Flow Laboratories. Neutrophil suspensions are greater than 98% pure and greater than 95% viable by trypan blue exclusion. For adhesion assays, neutrophils are suspended at a concentration of 2×10^6 cells/mL in Hanks' balanced salt solution containing 1.26 mM Ca^2+ and 0.81 mM Mg^2+ (HBSS, Gibco) with […] human serum albumin (HBSS/HSA). Adhesion assays are conducted in triplicate in 96-well microtiter plates, Corning, incubated at 4° C. overnight with 50 microliters of various protein solutions.
P-selectin is isolated from human platelet lysates by immunoaffinity chromatography on antibody S12-Sepharose™ and ion-exchange chromatography on a Mono-Q™ column (FLPC, Pharmacia Fine Chemicals), as follows.
Outdated human platelet packs (100 units) obtained from a blood bank and stored at 4° C. are pooled, adjusted to 5 mM EDTA at pH 7.5, centrifuged at 4,000 rpm for 30 minutes in 1 liter bottles, then washed three times with 1 liter of 0.1 M NaCl, 20 mM Tris pH 7.5 (TBS), 5 mM EDTA, 5 mM benzamidine.
The pellets are then resuspended in a minimum amount of wash buffer and made 1 mM in DIFP, then frozen in 50 mL screwtop tubes at -80° C. The frozen platelets are thawed and resuspended in 50 mL TBS, 5 mM benzamidine, 5 mM EDTA pH 7.5, 100 µM leupeptin. The suspension is frozen and thawed two times in a dry ice-acetone bath using a 600 mL lyophilizing flask, then homogenized in a glass/teflon mortar and pestle and made 1 mM in DIFP. The NaCl concentration is adjusted to 0.5 M with a stock solution of 4 M NaCl. After stirring the suspension at 4° C., it is centrifuged in polycarbonate tubes at 33,000 rpm for 60 minutes at 4° C. The supernatant (0.5 M NaCl wash) is removed and saved; this supernatant contains the soluble form of P-selectin. Care is taken not to remove the top part of the pellet with the supernatant. The pellets are then homogenized in extraction buffer (TBS, 5 mM benzamidine, 5 mM EDTA, pH 7.5, 100 μM leupeptin, 2% Triton X-100). After centrifugation at 19,500 rpm for 25 minutes at 4° C., the supernatant is removed. The extraction procedure is repeated with the pellet and the supernatant is combined with the first supernatant. The combined extracts, which contain the membrane form of P-selectin, are adjusted to 0.5 M NaCl.
The soluble fraction (0.5 M NaCl wash) and the membrane extract (also adjusted to 0.5 M NaCl) are absorbed with separate pools of the monoclonal antibody S12 (directed to P-selectin) previously coupled to Affigel (Biorad) at 5 mg/mL for 2 hours at 4° C. After letting the resins settle, the supernatants are removed. The S12 Affigel containing bound GMP-140 is then loaded into a column and washed overnight at 4° C. with 400 mL of 0.5 M NaCl, 20 mM Tris pH 7.5, 0.01% Lubrol PX.
Bound P-selectin is eluted from the S12 Affigel with 100 mL of 80% ethylene glycol, 1 mM MES pH 6.0, 0.01% Lubrol PX. Peak fractions with absorbance at 280 nm are pooled. Eluates are dialyzed against TBS with 0.05% Lubrol, then applied to a Mono Q column (FPLC from Pharmacia). The concentrated protein is step eluted with 2 M NaCl, 20 mM Tris pH 7.5 (plus 0.05% Lubrol PX for the membrane fraction). Peak fractions are dialyzed into TBS pH 7.5 (plus 0.05% Lubrol PX for the membrane fraction).
P-selectin is plated at 5 micrograms/mL and the control proteins: human serum albumin (Alb), platelet glycoprotein IIb/IIIa (IIb), von Willebrand factor (vWF), fibrinogen (FIB), thrombomodulin (TM), gelatin (GEL) or human serum (HS), are added at 50 micrograms/mL. […]

Row | SMILES | inhibition at 300 µM
1 | CC(C)C[C@H](NC(=O)[C@@H](NC(=O)[C@@H](N)CCCCN)C(C)C)C(=O)N1CCC[C@H]1C(=O)N[C@@H](Cc1ccc(O)cc1)C(=O)N[C@@H](Cc1ccc(O)cc1)C(=O)N[C@@H](CO)C(=O)N[C@@H](CO)C(=O)N[C@@H](Cc1ccc(O)cc1)C(=O)N[C@@H](Cc1ccc(O)cc1)C(=O)N[C@H](C(N)=O)C(C)C [SEQ ID NO: 5, Lys--Val--Leu--Pro--Tyr--Tyr--Ser--Ser--Tyr--Tyr--Val-NH2] (H-KVLPYYSSYYV-NH2) | 102%
2 | CC(C)C[C@H](NC(=O)[C@@H](NC(=O)[C@H](CCCCN)NC(=O)[C@H](CC(N)=O)NC(=O)[C@@H](N)CC(C)C)C(C)C)C(=O)N1CCC[C@H]1C(=O)N[C@@H](Cc1ccc(O)cc1)C(=O)N[C@@H](Cc1ccc(O)cc1)C(=O)N[C@@H](CO)C(=O)N[C@@H](CO)C(=O)N[C@@H](Cc1ccc(O)cc1)C(=O)N[C@@H](Cc1ccc(O)cc1)C(=O)N[C@H](C(N)=O)C(C)C [SEQ ID NO: 3, Leu--Asn--Lys--Val--Leu--Pro--Tyr--Tyr--Ser--Ser--Tyr--Tyr--Val-NH2] (H-LNKVLPYYSSYYV-NH2) | 100%
3 | CC(C)C[C@H](NC(=O)[C@@H](N)C(C)C)C(=O)N1CCC[C@H]1C(=O)N[C@@H](Cc1ccc(O)cc1)C(=O)N[C@@H](Cc1ccc(O)cc1)C(=O)N[C@@H](CO)C(=O)N[C@@H](CO)C(=O)N[C@@H](Cc1ccc(O)cc1)C(=O)N[C@@H](Cc1ccc(O)cc1)C(=O)N[C@H](C(N)=O)C(C)C [SEQ ID NO: 10, Val--Leu--Pro--Tyr--Tyr--Ser--Ser--Tyr--Tyr--Val-NH2] (H-VLPYYSSYYV-NH2) | 66%
4 | CC(C)C[C@H](NC(=O)[C@H](Cc1ccc(O)cc1)NC(=O)[C@@H](N)CC(=O)O)C(=O)N[C@@H](CC(N)=O)C(=O)N[C@@H](CCCCN)C(=O)N[C@H](C(=O)N[C@@H](CC(C)C)C(=O)N1CCC[C@H]1C(=O)N[C@@H](Cc1ccc(O)cc1)C(=O)N[C@@H](Cc1ccc(O)cc1)C(=O)N[C@@H](CO)C(=O)N[C@@H](CO)C(=O)N[C@@H](Cc1ccc(O)cc1)C(=O)N[C@@H](Cc1ccc(O)cc1)C(N)=O)C(C)C [SEQ ID NO: 6, Asp--Tyr--Leu--Asn--Lys--Val--Leu--Pro--Tyr--Tyr--Ser--Ser--Tyr--Tyr-NH2] (H-DYLNKVLPYYSSYY-NH2) | 61%

More lines, now with the values ahead:

Row | inhibition at 300 µM | SMILES
5 | 29% | CC(C)[C@H](NC(=O)[C@@H](N)CCCCN)C(=O)N[C@@H](CCC(N)=O)C(=O)N1CCC[C@H]1C(=O)N[C@@H](Cc1ccc(O)cc1)C(=O)N[C@@H](Cc1ccc(O)cc1)C(=O)N[C@@H](CO)C(=O)N[C@@H](CO)C(=O)N[C@@H](Cc1ccc(O)cc1)C(=O)N[C@@H](Cc1ccc(O)cc1)C(N)=O [SEQ ID NO: 22, Lys--Val--Gln--Pro--Tyr--Tyr--Ser--Ser--Tyr--Tyr-NH2] (H-KVQPYYSSYY-NH2)
6 | 54% | CC[C@H](C)[C@H](NC(=O)[C@H](CO)NC(=O)[C@H](CC(N)=O)NC(=O)[C@H](CC(C)C)NC(=O)[C@H](Cc1ccc(O)cc1)NC(=O)[C@@H](N)CCC(=O)O)C(=O)N[C@@H](CC(C)C)C(=O)N[C@@H](CO)C(=O)N[C@@H](Cc1ccc(O)cc1)C(=O)N[C@@H](CO)C(=O)N1CCC[C@H]1C(=O)N[C@@H](CO)C(=O)N[C@@H](Cc1ccc(O)cc1)C(=O)N[C@@H](Cc1ccc(O)cc1)C(=O)N[C@@H](Cc1c[nH]c2ccccc12)C(N)=O [SEQ ID NO: 23, Glu--Tyr--Leu--Asn--Ser--Ile--Leu--Ser--Tyr--Ser--Pro--Ser--Tyr--Tyr--Trp-NH2] (H-EYLNSILSYSPSYYW-NH2)
7 | 18% | CC(C)C[C@H](NC(=O)[C@@H](NC(=O)[C@@H](N)CCCCN)C(C)C)C(=O)N1CCC[C@H]1C(=O)N[C@@H](Cc1ccc(O)cc1)C(=O)N[C@@H](Cc1ccc(O)cc1)C(=O)N[C@@H](CO)C(=O)N[C@@H](C)C(=O)N[C@@H](Cc1ccc(O)cc1)C(=O)N[C@@H](Cc1ccc(O)cc1)C(N)=O [SEQ ID NO: 14, Lys--Val--Leu--Pro--Tyr--Tyr--Ser--Ala--Tyr--Tyr-NH2] (H-KVLPYYSAYY-NH2)
8 | 34% | CC(C)C[C@H](NC(=O)[C@@H](NC(=O)[C@@H](N)CCCCN)C(C)C)C(=O)N1CCC[C@H]1C(=O)N[C@@H](Cc1ccc(O)cc1)C(=O)NCC(=O)N[C@@H](CO)C(=O)N[C@@H](CO)C(=O)N[C@@H](Cc1ccc(O)cc1)C(=O)N[C@@H](Cc1ccc(O)cc1)C(N)=O [SEQ ID NO: 19, Lys--Val--Leu--Pro--Tyr--Gly--Ser--Ser--Tyr--Tyr-NH2] (H-KVLPYGSSYY-NH2)
